Test results published in patent US5672715A, “Herbicidal substituted 3-aryl-pyrazoles” (Monsanto Company, priority 1995, dated 1997).

Experiments:
Assay type in all cases: in vivo
Rape [1] = assay: pre-emergence herbicide test; conditions: pre-emergence, 0.25 lb/A; read-out: % plant inhibition
Summary of the method: (§1)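 Sown seeds covered with dosed topsoil; carrier acetone or water; greenhouse, watered from below, optional 1/4 in overhead irrigation post-treatment; % inhibition at ~14 d.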

Wild Oats [2] = assay: pre-emergence herbicide test; conditions: Avena fatua, pre-emergence, 0.25 lb/A; read-out: % plant inhibition
Summary of the method: as §1

Green Foxtail [3] = assay: pre-emergence herbicide test; conditions: Setaria viridis, pre-emergence; 0.25 lb/A; read-out: % plant inhibition
Summary of the method: as §1

Corn [4] = assay: pre-emergence herbicide test; conditions: Zea mays, pre-emergence, 0.25 lb/A; read-out: % plant inhibition
Summary of the method: as §1

Downy Brome [5] = assay: pre-emergence herbicide test; conditions: Bromus tectorum, pre-emergence, 0.25 lb/A; read-out: % plant inhibition
Summary of the method: as §1

Cocklebur [6] = assay: pre-emergence herbicide test; conditions: Xanthium strumarium, pre-emergence, 0.25 lb/A; read-out: % plant inhibition
Summary of the method: as §1

Birdseye Speedwell [7] = assay: pre-emergence herbicide test; conditions: pre-emergence, 0.25 lb/A; read-out: % plant inhibition
Summary of the method: as §1

Barnyardgrass [8] = assay: pre-emergence herbicide test; conditions: Echinochloa crus-galli, pre-emergence, 0.25 lb/A; read-out: % plant inhibition
Summary of the method: as §1

Soybean [9] = assay: pre-emergence herbicide test; conditions: Glycine max, pre-emergence, 0.25 lb/A; read-out: % plant inhibition
Summary of the method: as §1

Giant Foxtail [10] = assay: pre-emergence herbicide test; conditions: Setaria faberi, pre-emergence, 0.25 lb/A; read-out: % plant inhibition
Summary of the method: as §1

Velvetleaf [11] = assay: pre-emergence herbicide test; conditions: Abutilon theophrasti, pre-emergence, 0.25 lb/A; read-out: % plant inhibition
Summary of the method: as §1

Wheat [12] = assay: pre-emergence herbicide test; conditions: Triticum aestivum, pre-emergence, 0.25 lb/A; read-out: % plant inhibition
Summary of the method: as §1

Morning Glory [13] = assay: pre-emergence herbicide test; conditions: Ipomoea, pre-emergence, 0.25 lb/A; read-out: % plant inhibition
Summary of the method: as §1

Common Chickweed [14] = assay: pre-emergence herbicide test; conditions: pre-emergence, 0.25 lb/A; read-out: % plant inhibition
Summary of the method: as §1

Seedling Johnsongrass [15] = assay: pre-emergence herbicide test; conditions: Sorghum halepense, pre-emergence, 0.25 lb/A; read-out: % plant inhibition
Summary of the method: as §1

Blackgrass [16] = assay: pre-emergence herbicide test; conditions: Alopecurus myosuroides, pre-emergence, 0.25 lb/A; read-out: % plant inhibition
Summary of the method: as §1

Bedstraw Catchweed [17] = assay: pre-emergence herbicide test; conditions: Galium aparine, pre-emergence, 0.25 lb/A; read-out: % plant inhibition
Summary of the method: as §1

Rape [18] = assay: post-emergence herbicide test; conditions: post-emergence, 0.25 lb/A; read-out: % plant inhibition
Summary of the method: (§2)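 Herbicidal effect measured as percent inhibition of each plant species after spraying. Application: atomizer, 170.3 kPa, 1870 L/Ha, about 0.4% emulsifier, to plants aged two to three weeks in greenhouse soil pans.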

Wild Oats [19] = assay: post-emergence herbicide test; conditions: Avena fatua, post-emergence, 0.25 lb/A; read-out: % plant inhibition
Summary of the method: as §2

Green Foxtail [20] = assay: post-emergence herbicide test; conditions: Setaria viridis, post-emergence, 0.25 lb/A; read-out: % plant inhibition
Summary of the method: as §2

Corn [21] = assay: post-emergence herbicide test; conditions: Zea mays, post-emergence, 0.25 lb/A; read-out: % plant inhibition
Summary of the method: as §2

Downy Brome [22] = assay: post-emergence herbicide test; conditions: Bromus tectorum, post-emergence, 0.25 lb/A; read-out: % plant inhibition
Summary of the method: as §2

Cocklebur [23] = assay: post-emergence herbicide test; conditions: Xanthium strumarium, post-emergence, 0.25 lb/A; read-out: % plant inhibition
Summary of the method: as §2

Birdseye Speedwell [24] = assay: post-emergence herbicide test; conditions: post-emergence, 0.25 lb/A; read-out: % plant inhibition
Summary of the method: as §2

Barnyardgrass [25] = assay: post-emergence herbicide test; conditions: Echinochloa crus-galli, post-emergence, 0.25 lb/A; read-out: % plant inhibition
Summary of the method: as §2

Soybean [26] = assay: post-emergence herbicide test; conditions: Glycine max, post-emergence, 0.25 lb/A; read-out: % plant inhibition
Summary of the method: as §2

Giant Foxtail [27] = assay: post-emergence herbicide test; conditions: Setaria faberi, post-emergence, 0.25 lb/A; read-out: % plant inhibition
Summary of the method: as §2

Velvetleaf [28] = assay: post-emergence herbicide test; conditions: Abutilon theophrasti, post-emergence, 0.25 lb/A; read-out: % plant inhibition
Summary of the method: as §2

Wheat [29] = assay: post-emergence herbicide test; conditions: Triticum aestivum, post-emergence, 0.25 lb/A; read-out: % plant inhibition
Summary of the method: as §2

Morning Glory [30] = assay: post-emergence herbicide test; conditions: Ipomoea, post-emergence, 0.25 lb/A; read-out: % plant inhibition
Summary of the method: as §2

Common Chickweed [31] = assay: post-emergence herbicide test; conditions: post-emergence, 0.25 lb/A; read-out: % plant inhibition
Summary of the method: as §2

Seedling Johnsongrass [32] = assay: post-emergence herbicide test; conditions: Sorghum halepense, post-emergence, 0.25 lb/A; read-out: % plant inhibition
Summary of the method: as §2

Blackgrass [33] = assay: post-emergence herbicide test; conditions: Alopecurus myosuroides, post-emergence, 0.25 lb/A; read-out: % plant inhibition
Summary of the method: as §2

Bedstraw Catchweed [34] = assay: post-emergence herbicide test; conditions: Galium aparine, post-emergence, 0.25 lb/A; read-out: % plant inhibition
Summary of the method: as §2

| Structure (SMILES) | inhibition at 280.212 g/ha (Rape [1]) | inhibition at 280.212 g/ha (Wild Oats [2]) | inhibition at 280.212 g/ha (Green Foxtail [3]) | inhibition at 280.212 g/ha (Corn [4]) | inhibition at 280.212 g/ha (Downy Brome [5]) | inhibition at 280.212 g/ha (Cocklebur [6]) | inhibition at 280.212 g/ha (Birdseye Speedwell [7]) | inhibition at 280.212 g/ha (Barnyardgrass [8]) | inhibition at 280.212 g/ha (Soybean [9]) | inhibition at 280.212 g/ha (Giant Foxtail [10]) | inhibition at 280.212 g/ha (Velvetleaf [11]) | inhibition at 280.212 g/ha (Wheat [12]) | inhibition at 280.212 g/ha (Morning Glory [13]) | inhibition at 280.212 g/ha (Common Chickweed [14]) | inhibition at 280.212 g/ha (Seedling Johnsongrass [15]) | inhibition at 280.212 g/ha (Blackgrass [16]) | inhibition at 280.212 g/ha (Bedstraw Catchweed [17]) | inhibition at 280.212 g/ha (Rape [18]) | inhibition at 280.212 g/ha (Wild Oats [19]) | inhibition at 280.212 g/ha (Green Foxtail [20]) | further results |
| --- | --- | --- | --- | --- | --- | --- | --- | --- | --- | --- | --- | --- | --- | --- | --- | --- | --- | --- | --- | --- | --- |
| COCC(C)OC(=O)c1cc(-c2nn(C)c(C(F)(F)F)c2C)c(F)cc1Cl (stereo not drawn) [Compound 52] | 60% | 85% | 100% | 75% | 100% | 65% | 95% | 100% | 5% | 100% | 100% | 0% | 70% | 95% | 100% | 100% | 90% | 100% | 95% | 98% | inhibition at 280.212 g/ha (Corn [21]): 15%; inhibition at 280.212 g/ha (Downy Brome [22]): 100%; inhibition at 280.212 g/ha (Cocklebur [23]): 100%; inhibition at 280.212 g/ha (Birdseye Speedwell [24]): 100%; inhibition at 280.212 g/ha (Barnyardgrass [25]): 99%; inhibition at 280.212 g/ha (Soybean [26]): 95%; inhibition at 280.212 g/ha (Giant Foxtail [27]): 100%; inhibition at 280.212 g/ha (Velvetleaf [28]): 100%; inhibition at 280.212 g/ha (Wheat [29]): 25%; inhibition at 280.212 g/ha (Morning Glory [30]): 99%; inhibition at 280.212 g/ha (Common Chickweed [31]): 100%; inhibition at 280.212 g/ha (Seedling Johnsongrass [32]): 99%; inhibition at 280.212 g/ha (Blackgrass [33]): 95%; inhibition at 280.212 g/ha (Bedstraw Catchweed [34]): 100% |
| CC(=O)CCCOC(=O)c1cc(-c2nn(C)c(C(F)(F)F)c2C)c(F)cc1Cl [Compound 53] | 5% | 5% | 100% | 5% | 15% | 15% | 70% | 85% | 0% | 9% | 85% | 0% | 80% | 40% | 75% | 15% | 50% | 98% | 40% | 80% | inhibition at 280.212 g/ha (Corn [21]): 7%; inhibition at 280.212 g/ha (Downy Brome [22]): 45%; inhibition at 280.212 g/ha (Cocklebur [23]): 100%; inhibition at 280.212 g/ha (Birdseye Speedwell [24]): 95%; inhibition at 280.212 g/ha (Barnyardgrass [25]): 70%; inhibition at 280.212 g/ha (Soybean [26]): 75%; inhibition at 280.212 g/ha (Giant Foxtail [27]): 75%; inhibition at 280.212 g/ha (Velvetleaf [28]): 100%; inhibition at 280.212 g/ha (Wheat [29]): 16%; inhibition at 280.212 g/ha (Morning Glory [30]): 99%; inhibition at 280.212 g/ha (Common Chickweed [31]): 90%; inhibition at 280.212 g/ha (Seedling Johnsongrass [32]): 75%; inhibition at 280.212 g/ha (Blackgrass [33]): 25%; inhibition at 280.212 g/ha (Bedstraw Catchweed [34]): 95% |
| C=CCOC(=O)c1cc(-c2nn(C)c(C(F)(F)F)c2C)c(F)cc1Cl [Compound 54] | 0% | 30% | 100% | 10% | 75% | 35% | 98% | 100% | 5% | 99% | 100% | 5% | 40% | 90% | 99% | 35% | 80% | 75% | 80% | 98% | inhibition at 280.212 g/ha (Corn [21]): 35%; inhibition at 280.212 g/ha (Downy Brome [22]): 70%; inhibition at 280.212 g/ha (Cocklebur [23]): 99%; inhibition at 280.212 g/ha (Birdseye Speedwell [24]): 100%; inhibition at 280.212 g/ha (Barnyardgrass [25]): 95%; inhibition at 280.212 g/ha (Soybean [26]): 80%; inhibition at 280.212 g/ha (Giant Foxtail [27]): 90%; inhibition at 280.212 g/ha (Velvetleaf [28]): 100%; inhibition at 280.212 g/ha (Wheat [29]): 16%; inhibition at 280.212 g/ha (Morning Glory [30]): 80%; inhibition at 280.212 g/ha (Common Chickweed [31]): 90%; inhibition at 280.212 g/ha (Seedling Johnsongrass [32]): 90%; inhibition at 280.212 g/ha (Blackgrass [33]): 30%; inhibition at 280.212 g/ha (Bedstraw Catchweed [34]): 98% |
